Reference: patent US5441983A, “Treatment of infection by enveloped virus with calix(N)arene compounds” (Genelabs Incorporated, priority 1992, dated 1995)

Assays:
HSV-2 = assay: Topical treatment of genital HSV-2 infection, guinea pigs, first study
Protocol: Briefly, female guinea pigs were infected intravaginally with HSV-2, then treated topically three times daily beginning 6 hours or 48 hours after inoculation with HSV-2, as described in Example 13. […] Swabs of vaginal secretion were obtained and assayed for viral activity by a standard CPE assay. The severity of genital lesions was scored on a 0-5+ scale through the period of primary infection (21 days).
The MS strain of HSV-2 was utilized for the experimental animal infection. Female Hartley strain guinea pigs (Charles River Breeding Laboratories, Kingston, NY) weighing 250-300 g were inoculated intravaginally with 2.0×10^5 plaque-forming units of HSV-2 one hour after being swabbed for removal of vaginal secretions.
In the first study, groups of 10 guinea pigs were treated topically (0.1 ml intravaginally +0.1 ml on external genital skin) three times daily (approximately every eight hours) for seven days beginning 6 h or 48 h after inoculation with HSV-2.
To determine the effect of treatment on vaginal viral replication, swabs of vaginal secretions were obtained on days 1, 3, 5, 7 and 10 after HSV inoculation, placed in a tube containing 2.0 ml of media, vortexed and frozen at -70° C. until titrated for HSV-2. When all samples were collected, they were thawed, diluted serially and HSV-2 titers determined using rabbit kidney cells in a microtiter CPE assay.
To determine the effect of therapy on the development and spread of external genital lesions, lesion severity was scored on a 0-5+ scale through the primary infection period (19-21 days). Lesion score-day areas and virus titer-day areas under the curve, and peak lesion scores and peak virus titers between untreated and placebo-treated or placebo-treated and drug-treated animals were compared using the Mann-Whitney U range sum test. A p-value of 0.05 or less was considered significant.

[1] = tested on: HSV-1 binding to Vero cells; assay: Inhibition of binding of radiolabeled HSV-1 to Vero cells; assay type: cell-based; details: 10 μg/ml KY-1, FIG. 30
Protocol: In one study, the ability of a macrocyclic compound to block HSV binding to infectable cells was examined as described in Example 14. Briefly, Vero cells were exposed to radiolabeled HSV-1 or HSV-2 in the absence of KY compound or in the presence of 10 μg/ml KY-1, and binding of the virus at times up to 4 hours after exposure to the virus was measured. […] In the absence of drug, the amount of bound virus increased steadily over two hours, and slightly from 2-4 hours. By contrast, virus binding to cells peaked at about 1/2 hour in the presence of drug, presumably reflecting the time during which the binding events effective to block virus binding to the cells are equilibrating.
At time intervals of 5, 30, 60, 120, and 240 minutes, cells were removed from the suspension, washed two times with PBS, and assayed for bound virus (cpm ^3 H). The results are given in FIG. 30, where the control virus binding is indicated by solid circles, and the drug-inhibited binding, by open rectangles.

Influenza A (Taiwan) = assay: Inhibition of influenza A cytopathic effect (clumping) in MDCK cells; assay type: cell-based, Influenza A virus (A/Taiwan strain); details: Influenza A virus, 24 h, 50% reduction in percent clumped cells, read-out: ED50 Influenza A (Taiwan)
Protocol: With virus infection, a cytopathic effect characterized by cell clumping is observed. For each compound tested, drug concentrations of 0.1, 1, 10, 25, and 100 μg/ml were added to cultured cells at the time of virus infection, as detailed in Examples 9 and 11. […] The inhibition of clumping was plotted as a function of drug concentration, to determine the dose effective to produce a 50% reduction in the percent clumped cells, measured with respect to control (no drug treatment).
Assays to assess the antiviral activity of KY- and Y-compounds in tissue culture were performed in 96-well flat-bottom tissue culture plates (Falcon 307), using conditions similar to those used in the cytotoxicity assays described above. In these assays, compound was tested in quadruplicate by serially diluting the compound in 2% FCS-MEM using serial two-fold dilutions (0.05 ml/well). A 0.05 ml volume of the appropriate virus containing approximately 100 median tissue culture infectious doses (TCID50) was then added to all wells except those set aside as antiviral and tissue control wells. Next, approximately 3×10^3 HEp2 cells (0.1 ml) were added to each well. Control wells containing antiviral and no virus (antiviral control), containing virus but no antiviral (virus control), or containing medium without virus or antiviral (tissue control), were included in each test. The challenge virus was then back titrated. All assay plates were incubated at 35° C. for 5 to 7 days in a 5% CO2 incubator.
The anti-influenza A activity of KY compounds was evaluated as described in Example 9, except that MDCK cells (kidney cell line) was used for infection in vitro by influenza virus (strain A/Taiwan).

O=S(=O)(O)c1cc2cc(S(=O)(=O)O)c3c(O)c2c(O)c1Cc1c(S(=O)(=O)O)cc2cc(S(=O)(=O)O)c(c(O)c2c1O)Cc1c(S(=O)(=O)O)cc2cc(S(=O)(=O)O)c(c(O)c2c1O)Cc1c(S(=O)(=O)O)cc2cc(S(=O)(=O)O)c(c(O)c2c1O)C3 [KY-1]
Lesion score Area Under Curve (HSV-2; 1%, +6 h): 30.8
Mean Peak lesion score (HSV-2; 1%, +6 h): 2.9
AUC, in words (HSV-2; 1%, +6h, P<0.01): significantly reduced the AUC
Lesion score Area Under Curve (HSV-2; 1%, +48 h): 46.6
Mean Peak lesion score (HSV-2; 1%, +48 h): 4.3
lesion development (AUC and mean peak lesion scores) versus placebo (HSV-2; 5%, 6h after infection, P <0.001): significantly reduced
Lesion score Area Under Curve (HSV-2; 5%, +6 h): 3.8
Mean Peak lesion score (HSV-2; 5%, +6 h): 0.8
Lesion score Area Under Curve (HSV-2; 5%, +48 h): 45.7
Mean Peak lesion score (HSV-2; 5%, +48 h): 3.7
time at which virus binding to cells peaked [1]: about 1/2
EC50 (Influenza A (Taiwan)): > 188 µg/mL
